Source: patent US9113629B2, “4-amino-6-(4-substituted-phenyl)-picolinates and 6-amino-2-(4-substituted-phenyl)-pyrimidine-4-carboxylates and their use as herbicides” (DOW AGROSCIENCES LLC, priority 2013, dated 2015)
Where two headings read alike, the source gives them in different places.

Experiments:
[1] = system: Key Broadleaf Weed and Crop Species; test: Post-emergent Test II herbicidal activity (Table 5); format: in vivo; conditions: post-emergence, 336 h, 14 days after application; for pest or weed control at 70 g/ha: application rate 70 g ai/ha; for pest or weed control at 140 g/ha: application rate 140 g ai/ha
In short: (§1)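 Greenhouse post-emergent assay: seedlings (first/second true leaf) in Metro-Mix 360 were sprayed at 187 L/ha at a top rate plus twofold dilutions down to 1/16×; solvent-blank controls were included. Percent visual injury was read at 14 d.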

[2] = system: Key Grass and Sedge Weeds as well as Grass Crops; test: Post-emergent Test II herbicidal activity (Table 6); format: in vivo; conditions: post-emergence, 336 h; for pest or weed control at 70 g/ha: 70 g ai/ha; for pest or weed control at 140 g/ha: 140 g ai/ha
In short: as §1

[3] = ABUTH: velvetleaf (Abutilon theophrasti), read-out: Visual Growth Reduction (%) 14 Days After Application, ABUTH
[4] = AMARE: redroot pigweed (Amaranthus retroflexus), read-out: Visual Growth Reduction (%) 14 Days After Application, AMARE
[5] = BRSNN: oilseed-rape, canola (Brassica napus), read-out: Visual Growth Reduction (%) 14 Days After Application, BRSNN
[6] = CHEAL: lambsquarters (Chenopodium album), read-out: Visual Growth Reduction (%) 14 Days After Application, CHEAL
[7] = EPHHL: wild poinsettia (Euphorbia heterophylla), read-out: Visual Growth Reduction (%) 14 Days After Application, EPHHL
[8] = HELAN: sunflower (Helianthus annuus), read-out: Visual Growth Reduction (%) 14 Days After Application, HELAN
[9] = VIOTR: wild pansy (Viola tricolor), read-out: Visual Growth Reduction (%) 14 Days After Application, VIOTR
[10] = CYPES: yellow nutsedge (Cyperus esculentus), read-out: Visual Growth Reduction (%) 14 Days After Application, CYPES
[11] = DIGSA: crabgrass (Digitaria sanguinalis), read-out: Visual Growth Reduction (%) 14 Days After Application, DIGSA
[12] = ECHCG: barnyardgrass (Echinochloa crus-galli), read-out: Visual Growth Reduction (%) 14 Days After Application, ECHCG
[13] = ORYSA: rice (Oryza sativa), crop, read-out: Visual Growth Reduction (%) 14 Days After Application, ORYSA
[14] = SETFA: giant foxtail (Setaria faberi), read-out: Visual Growth Reduction (%) 14 Days After Application, SETFA
[15] = SORVU: grain sorghum (Sorghum vulgare), read-out: Visual Growth Reduction (%) 14 Days After Application, SORVU
[16] = TRZSS (wheat, Triticum aestivum), crop, read-out: Visual Growth Reduction (%) 14 Days After Application, TRZSS
[17] = ZEAMX: maize, corn (Zea mays), crop, read-out: Visual Growth Reduction (%) 14 Days After Application, ZEAMX

COC(=O)c1nc(-c2ccc(OC(F)F)c(F)c2F)c(F)c(N)c1Cl [Compound 103]
pest or weed control at 70 g/ha [1, 3]: 45 to 59% | pest or weed control at 140 g/ha [1, 3]: 45 to 59% | pest or weed control at 70 g/ha [1, 4]: 0 to 29% | pest or weed control at 140 g/ha [1, 4]: 0 to 29% | pest or weed control at 70 g/ha [1, 5]: 0 to 29% | pest or weed control at 140 g/ha [1, 5]: 30 to 44% | pest or weed control at 70 g/ha [1, 6]: 0 to 29% | pest or weed control at 140 g/ha [1, 6]: 85 to 94% | pest or weed control at 70 g/ha [1, 7]: 0 to 29% | pest or weed control at 140 g/ha [1, 7]: 0 to 29% | pest or weed control at 70 g/ha [1, 8]: 75 to 84% | pest or weed control at 140 g/ha [1, 8]: 75 to 84% | pest or weed control at 70 g/ha [1, 9]: 0 to 29% | pest or weed control at 140 g/ha [1, 9]: 0 to 29% | pest or weed control at 70 g/ha [2, 10]: 0 to 29% | pest or weed control at 140 g/ha [2, 10]: 45 to 59% | pest or weed control at 70 g/ha [2, 11]: 0 to 29% | pest or weed control at 140 g/ha [2, 11]: 0 to 29% | pest or weed control at 70 g/ha [2, 12]: 0 to 29% | pest or weed control at 140 g/ha [2, 12]: 0 to 29% | pest or weed control at 70 g/ha [2, 13]: 0 to 29% | pest or weed control at 140 g/ha [2, 13]: 0 to 29% | pest or weed control at 70 g/ha [2, 14]: 0 to 29% | pest or weed control at 140 g/ha [2, 14]: 0 to 29% | pest or weed control at 70 g/ha [2, 15]: 0 to 29% | pest or weed control at 140 g/ha [2, 15]: 0 to 29% | pest or weed control at 70 g/ha [2, 16]: 0 to 29% | pest or weed control at 140 g/ha [2, 16]: 0 to 29% | pest or weed control at 70 g/ha [2, 17]: 0 to 29% | pest or weed control at 140 g/ha [2, 17]: 0 to 29%
